Measurements from ChEMBL document CHEMBL4417630, “Small-molecule inhibitors of Rac1 in metastatic breast cancer” (2014).
The source made the active and inactive calls. The rule behind the calls is not given here.

Tests used:
[1] = target: Transforming protein RhoA (Homo sapiens) (UniProt P61586); assay: Activation of RhoA in human MDA-MB-435 cells assessed as remaining enzyme activity at 5 uM by Western blotting based pulldown assay (reference value: 100%); assay type: cell-based
[2] = target: Ras-related C3 botulinum toxin substrate 1 (Homo sapiens) (UniProt P63000); assay: Inhibition of Rac1 in human MDA-MB-231 cells assessed as remaining enzyme activity at 2 uM by Western blotting based pulldown assay (reference value: 100%); assay type: cell-based
[3] = test system: Ras-related C3 botulinum toxin substrate 1 (Homo sapiens), P63000 [G15A]; assay: Inhibition of glutathione agarose conjugated Rac1 G15A mutant (unknown origin) in assessed as reduction in purified Tiam-1 DH/PH domain association with Rac1 G15A mutant at […] by Western blotting based pulldown assay relative to control
[4] = target: Cell division control protein 42 homolog (Homo sapiens) (UniProt P60953); assay: Inhibition of Cdc42 in human MDA-MB-435 cells assessed as remaining enzyme activity at 10 uM by Western blotting based pulldown assay (reference value: 100%); assay type: cell-based
[5] = target: Cell division control protein 42 homolog (Homo sapiens) (UniProt P60953); assay: Inhibition of Cdc42 in human MDA-MB-435 cells assessed as remaining enzyme activity at 2 uM by Western blotting based pulldown assay (reference value: 100%); assay type: cell-based
[6] = target: Ras-related C3 botulinum toxin substrate 1 (Homo sapiens) (UniProt P63000); assay: Inhibition of Rac1 in human MDA-MB-435 cells assessed as reduction in PAK1 […] phosphorylation at 2 to 4 uM by Western blot analysis; assay type: cell-based
MDA-MB-231 [7] = assay: Cytotoxicity against human MDA-MB-231 cells assessed as reduction in cell viability at 25 uM incubated for 24 hrs by MTT assay; assay type: functional, cell-based
[8] = target: Cell division control protein 42 homolog (Homo sapiens) (UniProt P60953); assay: Inhibition of Cdc42 in human MDA-MB-435 cells assessed as remaining enzyme activity at 4 uM by Western blotting based pulldown assay (reference value: 100%); assay type: cell-based
[9] = target: Cell division control protein 42 homolog (Homo sapiens) (UniProt P60953); assay: Inhibition of Cdc42 in human MDA-MB-231 cells assessed as inhibition of lamellipodia formation at 2 to 4 uM incubated for 24 hrs rhodamine phalloidin staining based fluorescence microscopy; assay type: cell-based
MCF-10A [10] = assay: Cytotoxicity against human MCF10A cells assessed as reduction in cell viability at 1 to 2 uM incubated for 24 hrs by MTT assay; assay type: cell-based
[11] = test system: Ras-related C3 botulinum toxin substrate 1 (Homo sapiens), P63000 [G15A]; assay: Inhibition of glutathione agarose conjugated Rac1 G15A mutant (unknown origin) in assessed as reduction in purified Tiam-1 DH/PH domain association with Rac1 G15A mutant by measuring average Tiam-1 level in pulldown at 25 uM by Western blotting based pulldown assay (reference value: 100%); parameters: scale not given: the % may be the effect or the level left
[12] = test system: Ras-related C3 botulinum toxin substrate 1 (Homo sapiens), P63000 [G15A]; assay: Inhibition of glutathione agarose conjugated Rac1 G15A mutant (unknown origin) in assessed as reduction in purified Tiam-1 DH/PH domain association with Rac1 G15A mutant by measuring average Tiam-1 level in pulldown at 8 uM by Western blotting based pulldown assay (reference value: 100%); parameters: scale not given: the % may be the effect or the level left
[13] = target: Ras-related C3 botulinum toxin substrate 1 (Homo sapiens) (UniProt P63000); assay: Inhibition of Rac1 in human MDA-MB-435 cells assessed as remaining enzyme activity at 4 uM by Western blotting based pulldown assay (reference value: 100%); assay type: cell-based
MDA-MB-435 [14] = assay: Cytotoxicity against human MDA-MB-435 cells assessed as reduction in cell viability at 1 to 2 uM incubated for 24 hrs by MTT assay; assay type: functional, cell-based
[15] = Toxicity in athymic nude mouse assessed as effect on gross indications of toxicity at 1 mg/kg, po dosed once week for 9 weeks; assay type: organism-based; details: in vivo, 1512 h
[16] = Toxicity in athymic nude mouse assessed as effect on body weight at 1 mg/kg, po dosed once week for 9 weeks; assay type: organism-based; details: in vivo, 1512 h
[17] = Toxicity in athymic nude mouse assessed as effect on gross indications of toxicity at 1 mg/kg, ip dosed once week for 9 weeks; assay type: organism-based; details: in vivo, 1512 h
[18] = test system: Ras-related C3 botulinum toxin substrate 1 (Homo sapiens), P63000 [G15A]; assay: Inhibition of glutathione agarose conjugated Rac1 G15A mutant (unknown origin) in assessed as reduction in purified Tiam-1 DH/PH domain association with Rac1 G15A mutant by measuring average Tiam-1 level in pulldown at 4 uM by Western blotting based pulldown assay (reference value: 100%); parameters: scale not given: the % may be the effect or the level left
[19] = target: Ras-related C3 botulinum toxin substrate 1 (Homo sapiens) (UniProt P63000); assay: Potency index, ratio of IC50 for NSC-23766 to IC50 for test compound for inhibition of Rac1 in human MDA-MB-435 cells incubated for 24 hrs by G-LISA Rac1 activation assay; assay type: cell-based
[20] = target: Cell division control protein 42 homolog (Homo sapiens) (UniProt P60953); assay: Inhibition of Cdc42 in human MDA-MB-435 cells assessed as inhibition of lamellipodia formation at 2 to 4 uM incubated for 24 hrs rhodamine phalloidin staining based fluorescence microscopy; assay type: cell-based
MDA-MB-435 [21] = assay: Cytotoxicity against human MDA-MB-435 cells assessed as reduction in cell viability at 25 uM incubated for 24 hrs by MTT assay; assay type: functional, cell-based
[22] = target: Cell division control protein 42 homolog (Homo sapiens) (UniProt P60953); assay: Inhibition of Cdc42 in human MDA-MB-435 cells assessed as remaining enzyme activity at 5 uM by Western blotting based pulldown assay (reference value: 100%); assay type: cell-based
[23] = target: Transforming protein RhoA (Homo sapiens) (UniProt P61586); assay: Activation of RhoA in human MDA-MB-435 cells assessed as remaining enzyme activity at 10 uM by Western blotting based pulldown assay (reference value: 100%); assay type: cell-based
MCF-10A [24] = assay: Cytotoxicity against human MCF10A cells assessed as reduction in cell viability at 25 uM incubated for 24 hrs by MTT assay; assay type: cell-based
[25] = test system: Ras-related C3 botulinum toxin substrate 1 (Homo sapiens), P63000 [G15A]; assay: Inhibition of glutathione agarose conjugated Rac1 G15A mutant (unknown origin) in assessed as reduction in purified Tiam-1 DH/PH domain association with Rac1 G15A mutant at 40 uM by Western blotting based pulldown assay relative to control
[26] = target: Transforming protein RhoA (Homo sapiens) (UniProt P61586); assay: Activation of RhoA in human MDA-MB-435 cells assessed as remaining enzyme activity at 4 uM by Western blotting based pulldown assay (reference value: 100%); assay type: cell-based
[27] = target: Ras-related C3 botulinum toxin substrate 3 (Homo sapiens) (UniProt P60763); assay: Inhibition of Rac3 in human MDA-MB-435 cells assessed as remaining enzyme activity at 1 uM by Western blotting based pulldown assay (reference value: 100%); assay type: cell-based
[28] = target: Transforming protein RhoA (Homo sapiens) (UniProt P61586); assay: Activation of RhoA in human MDA-MB-435 cells assessed as remaining enzyme activity at 2 uM by Western blotting based pulldown assay (reference value: 100%); assay type: cell-based
[29] = Toxicity in athymic nude mouse assessed as effect on body weight at 1 mg/kg, ip dosed once week for 9 weeks; assay type: organism-based; details: in vivo, 1512 h
[30] = target: Ras-related C3 botulinum toxin substrate 1 (Homo sapiens) (UniProt P63000); assay: Inhibition of Rac1 in human MDA-MB-231 cells assessed as remaining enzyme activity at 4 uM by Western blotting based pulldown assay (reference value: 100%); assay type: cell-based
MDA-MB-231 [31] = assay: Cytotoxicity against human MDA-MB-231 cells assessed as reduction in cell viability at 1 to 2 uM incubated for 24 hrs by MTT assay; assay type: functional, cell-based
[32] = target: Ras-related C3 botulinum toxin substrate 1 (Homo sapiens) (UniProt P63000); assay: Inhibition of Rac1 in human MDA-MB-435 cells assessed as remaining enzyme activity at 2 uM by Western blotting based pulldown assay (reference value: 100%); assay type: cell-based

Sequence of Cell division control protein 42 homolog (Homo sapiens) (P60953 whole entry, looked up): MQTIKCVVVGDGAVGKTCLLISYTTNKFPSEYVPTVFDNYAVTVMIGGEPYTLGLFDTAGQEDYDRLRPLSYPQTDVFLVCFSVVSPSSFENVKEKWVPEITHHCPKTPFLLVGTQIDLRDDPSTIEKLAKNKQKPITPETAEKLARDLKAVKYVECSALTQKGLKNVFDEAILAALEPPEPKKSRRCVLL
Sequence of Transforming protein RhoA (Homo sapiens) (P61586 whole entry): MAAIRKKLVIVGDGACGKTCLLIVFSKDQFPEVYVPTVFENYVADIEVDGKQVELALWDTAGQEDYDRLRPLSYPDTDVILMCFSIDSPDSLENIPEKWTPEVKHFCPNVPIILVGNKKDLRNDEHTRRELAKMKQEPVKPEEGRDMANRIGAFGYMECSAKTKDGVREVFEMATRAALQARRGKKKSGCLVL

CCn1c2ccccc2c2cc(Nc3ccnc(NCCCN4CCOCC4)n3)ccc21
Activity [1]: 125%
Activity [2]: 65%
inhibition [3]: Active
Activity [4]: 25%
Activity [5]: 104%
inhibition [6]: Active
Activity (MDA-MB-231 [7]): Active
Activity [8]: 95%
inhibition [9]: inactive
Activity (MCF-10A [10]): Non-Toxic
Activity [11]: 112%
Activity [12]: 96%
Activity [13]: 7%
Activity (MDA-MB-435 [14]): inactive
Activity [15]: Non-Toxic
Activity [16]: Non-Toxic
Activity [17]: Non-Toxic
Activity [18]: 123%
Ratio IC50 [19]: 100
inhibition [20]: inactive
Activity (MDA-MB-435 [21]): Active
Activity [22]: 72%
Activity [23]: 123%
Activity (MCF-10A [24]): Toxic
inhibition [25]: Active
Activity [26]: 128%
Activity [27]: 42%
Activity [28]: 155%
Activity [29]: Non-Toxic
Activity [30]: 35%
Activity (MDA-MB-231 [31]): inactive
Activity [32]: 19%
